Measured values published in ChEMBL document CHEMBL4673207, “Recent advances in the discovery of potent and selective HDAC6 inhibitors” (Eur J Med Chem, 2018).

Assays:
HEK293T = experiment: Selectivity ratio of IC50 for Flag-tagged HDAC1 (unknown origin) expressed in 293T cells to IC50 for Flag-tagged HDAC6 (unknown origin) expressed in 293T cells; format: cell-based; conditions: Homo sapiens
[1] = target: T1, Protein deacetylase HDAC6 (Homo sapiens, UniProt Q9UBN7); experiment: Inhibition of Flag-tagged HDAC6 (unknown origin) expressed in 293T cells using ZMAL as substrate incubated for 180 mins by fluorescence method; parameters: species or system HEK293T
T1 sequence (Q9UBN7 whole entry): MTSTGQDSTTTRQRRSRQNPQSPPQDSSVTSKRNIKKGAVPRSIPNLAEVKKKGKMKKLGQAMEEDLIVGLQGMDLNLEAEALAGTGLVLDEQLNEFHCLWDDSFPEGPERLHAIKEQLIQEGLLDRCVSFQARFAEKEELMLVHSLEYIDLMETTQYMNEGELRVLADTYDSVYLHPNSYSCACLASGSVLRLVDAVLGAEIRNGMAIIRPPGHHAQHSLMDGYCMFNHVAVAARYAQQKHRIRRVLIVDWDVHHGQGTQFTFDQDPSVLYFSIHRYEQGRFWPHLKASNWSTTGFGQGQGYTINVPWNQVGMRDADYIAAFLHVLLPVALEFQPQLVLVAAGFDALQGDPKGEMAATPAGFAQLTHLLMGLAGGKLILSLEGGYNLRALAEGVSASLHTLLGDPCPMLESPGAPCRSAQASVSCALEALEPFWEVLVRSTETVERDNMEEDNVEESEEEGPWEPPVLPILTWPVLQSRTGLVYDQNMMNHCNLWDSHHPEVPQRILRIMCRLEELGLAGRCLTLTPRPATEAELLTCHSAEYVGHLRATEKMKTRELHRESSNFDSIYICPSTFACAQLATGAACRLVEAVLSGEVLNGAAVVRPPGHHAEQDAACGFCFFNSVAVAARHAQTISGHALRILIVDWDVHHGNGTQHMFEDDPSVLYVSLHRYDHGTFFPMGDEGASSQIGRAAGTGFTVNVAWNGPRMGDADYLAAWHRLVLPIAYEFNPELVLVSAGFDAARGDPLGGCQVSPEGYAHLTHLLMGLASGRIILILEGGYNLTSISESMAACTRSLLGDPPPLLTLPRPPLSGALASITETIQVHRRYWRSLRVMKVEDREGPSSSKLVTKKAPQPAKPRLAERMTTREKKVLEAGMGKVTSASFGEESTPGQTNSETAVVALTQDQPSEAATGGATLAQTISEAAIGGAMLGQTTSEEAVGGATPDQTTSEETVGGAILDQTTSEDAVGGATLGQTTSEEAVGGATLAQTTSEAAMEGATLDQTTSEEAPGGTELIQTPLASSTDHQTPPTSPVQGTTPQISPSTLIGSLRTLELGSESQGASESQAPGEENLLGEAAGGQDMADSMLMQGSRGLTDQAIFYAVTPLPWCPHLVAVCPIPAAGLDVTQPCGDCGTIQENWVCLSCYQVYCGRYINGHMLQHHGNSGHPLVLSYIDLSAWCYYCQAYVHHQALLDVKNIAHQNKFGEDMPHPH

MCF7 = experiment: Antiproliferative activity against human MCF7 incubated for 72 hrs by MTT assay; format: functional
Histone deacetylase 1 [2] = target: T2, Histone deacetylase 1 (Homo sapiens, UniProt Q13547); experiment: Inhibition of Flag-tagged HDAC1 (unknown origin) expressed in 293T cells using ZMAL as substrate incubated for 180 mins by fluorescence method; parameters: species or system HEK293T
[3] = target: T3, Polyamine deacetylase HDAC10 (Homo sapiens, UniProt Q969S8); experiment: Inhibition of N-terminal Flag tagged- human HDAC10 (2 to 631 amino acids) expressed in baculovirus infected Sf9 cells using Fluor deLys substrate by fluorescence method
T3 sequence (Q969S8 whole entry): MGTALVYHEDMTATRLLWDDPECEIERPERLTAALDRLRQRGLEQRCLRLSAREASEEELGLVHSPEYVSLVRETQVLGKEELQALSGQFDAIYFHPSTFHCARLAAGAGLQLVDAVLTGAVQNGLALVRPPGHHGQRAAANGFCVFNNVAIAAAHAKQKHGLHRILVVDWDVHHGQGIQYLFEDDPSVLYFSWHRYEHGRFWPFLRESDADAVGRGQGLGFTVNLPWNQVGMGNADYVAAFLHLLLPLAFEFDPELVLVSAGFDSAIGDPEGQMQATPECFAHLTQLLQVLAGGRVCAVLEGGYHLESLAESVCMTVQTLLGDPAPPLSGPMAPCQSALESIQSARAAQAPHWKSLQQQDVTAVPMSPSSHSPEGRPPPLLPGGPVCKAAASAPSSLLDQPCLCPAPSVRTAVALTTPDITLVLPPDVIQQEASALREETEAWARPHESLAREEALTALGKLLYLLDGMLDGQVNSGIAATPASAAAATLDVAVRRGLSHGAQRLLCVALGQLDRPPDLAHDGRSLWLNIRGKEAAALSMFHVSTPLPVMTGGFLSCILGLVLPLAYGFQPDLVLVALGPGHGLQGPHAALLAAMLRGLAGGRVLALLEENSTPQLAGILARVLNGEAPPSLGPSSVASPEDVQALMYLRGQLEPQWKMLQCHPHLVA

Histone deacetylase 5 [4] = target: T4, Histone deacetylase 5 (Homo sapiens, UniProt Q9UQL6); experiment: Inhibition of human HDAC5 using Fluor deLys substrate by fluorescence method
Histone deacetylase 4 [5] = target: T5, Histone deacetylase 4 (Homo sapiens, UniProt P56524); experiment: Inhibition of human HDAC4 expressed in sf9 cells using Fluor deLys substrate by fluorescence method
Histone deacetylase 9 = Histone deacetylase 9 (Homo sapiens, UniProt Q9UKV0); experiment: Inhibition of human HDAC9 using fluorogenic HDAC substrate incubated for 30 mins by fluorimetry
Histone deacetylase 8 = Histone deacetylase 8 (Homo sapiens, UniProt Q9BY41); experiment: Inhibition of human HDAC8 using fluorogenic HDAC substrate incubated for 60 mins by fluorimetry
Histone deacetylase 5 [6] = target: T4, Histone deacetylase 5; experiment: Inhibition of human HDAC5 using fluorogenic HDAC substrate incubated for 30 mins by fluorimetry
Histone deacetylase 4 [7] = target: T5, Histone deacetylase 4; experiment: Inhibition of human HDAC4 using fluorogenic HDAC substrate incubated for 30 mins by fluorimetry
Histone deacetylase 11 = Histone deacetylase 11 (Homo sapiens, UniProt Q96DB2); experiment: Inhibition of human HDAC11 using fluorogenic HDAC substrate incubated for 30 mins by fluorescence method
[8] = target: T3, Polyamine deacetylase HDAC10; experiment: Inhibition of human HDAC10 using fluorogenic HDAC substrate incubated for 45 mins by fluorimetry
Histone deacetylase 3 = Histone deacetylase 3 (Homo sapiens, UniProt O15379); experiment: Inhibition of human HDAC3 using fluorogenic HDAC substrate incubated for 10 mins by spectrophotometric method
Histone deacetylase 2 [9] = target: T6, Histone deacetylase 2 (Homo sapiens, UniProt Q92769); experiment: Inhibition of human HDAC2 using fluorogenic HDAC substrate incubated for 15 mins by fluorimetry
[10] = target: T1, Protein deacetylase HDAC6; experiment: Inhibition of human HDAC6 using fluorogenic HDAC substrate incubated for 30 mins by fluorimetry
Histone deacetylase 1 [11] = target: T2, Histone deacetylase 1; experiment: Inhibition of human HDAC1 using fluorogenic HDAC substrate incubated for 15 mins by fluorimetry
[12] = target: T1, Protein deacetylase HDAC6; experiment: Inhibition of recombinant human HDAC6 expressed in baculovirus infected sf9 cells using fluor-de-Lys-SIRT1 as substrate by fluorescence method
CAL-27 = experiment: Antiproliferative activity against human Cal-27 cells by MTT assay; format: functional, cell-based
A2780 = experiment: Antiproliferative activity against human A2780 cells by MTT assay; format: functional, cell-based
Histone deacetylase 2 [13] = target: T6, Histone deacetylase 2; experiment: Inhibition of human HDAC2 using p53 fluorogenic peptide (379 to 382 residues) RHKKAc as substrate by fluorescence-based assay
[14] = target: T1, Protein deacetylase HDAC6; experiment: Inhibition of human HDAC6 using p53 fluorogenic peptide (379 to 382 residues) RHKKAc as substrate by fluorescence-based assay
[15] = target: NAD-dependent protein deacetylase sirtuin-2 (Homo sapiens, UniProt Q8IXJ6); experiment: Inhibition of human sirtuin 2 using fluoro-lysine sirtuin 2 deacetylase as substrate incubated for 60 mins by fluorimetry
[16] = target: NAD-dependent protein deacetylase sirtuin-1 (Homo sapiens, UniProt Q96EB6); experiment: Inhibition of human sirtuin 1 using fluorogenic HDAC substrate incubated for 20 mins by fluorimetry
OPM-2 = experiment: Cytotoxicity against human OPM-2 cells incubated for 48 hrs by MTT assay; format: functional, cell-based; conditions: OPM-2, 48 h
MM1.S = experiment: Cytotoxicity against human MM1.S cells incubated for 48 hrs by MTT assay; format: functional, cell-based
Histone deacetylase 1 [17] = target: T2, Histone deacetylase 1; experiment: Inhibition of human HDAC1 using p53 fluorogenic peptide (379 to 382 residues) RHKKAc as substrate by fluorescence-based assay
HCT-116 = experiment: Antiproliferative activity against human HCT116 cells incubated for 72 hrs by MTT assay; format: functional, cell-based; conditions: HCT-116, 72 h
PC-3 = experiment: Antiproliferative activity against human PC3 cells incubated for 72 hrs by MTT assay; format: functional, cell-based; conditions: PC-3, 72 h

T6 sequence (Q92769 whole entry): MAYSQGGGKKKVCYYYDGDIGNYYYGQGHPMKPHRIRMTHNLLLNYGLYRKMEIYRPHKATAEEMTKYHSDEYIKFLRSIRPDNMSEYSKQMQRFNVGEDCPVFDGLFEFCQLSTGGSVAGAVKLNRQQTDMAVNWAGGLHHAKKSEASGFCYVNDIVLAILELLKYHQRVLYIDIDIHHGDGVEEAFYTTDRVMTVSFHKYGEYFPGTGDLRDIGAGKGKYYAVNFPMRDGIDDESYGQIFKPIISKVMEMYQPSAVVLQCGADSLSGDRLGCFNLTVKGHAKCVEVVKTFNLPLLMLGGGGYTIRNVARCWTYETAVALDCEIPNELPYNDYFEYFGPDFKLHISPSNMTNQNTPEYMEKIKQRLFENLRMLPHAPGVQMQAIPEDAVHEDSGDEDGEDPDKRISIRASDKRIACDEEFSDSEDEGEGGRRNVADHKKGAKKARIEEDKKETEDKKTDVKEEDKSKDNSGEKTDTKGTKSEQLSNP
T2 sequence (Q13547 whole entry, the tested form may be a part): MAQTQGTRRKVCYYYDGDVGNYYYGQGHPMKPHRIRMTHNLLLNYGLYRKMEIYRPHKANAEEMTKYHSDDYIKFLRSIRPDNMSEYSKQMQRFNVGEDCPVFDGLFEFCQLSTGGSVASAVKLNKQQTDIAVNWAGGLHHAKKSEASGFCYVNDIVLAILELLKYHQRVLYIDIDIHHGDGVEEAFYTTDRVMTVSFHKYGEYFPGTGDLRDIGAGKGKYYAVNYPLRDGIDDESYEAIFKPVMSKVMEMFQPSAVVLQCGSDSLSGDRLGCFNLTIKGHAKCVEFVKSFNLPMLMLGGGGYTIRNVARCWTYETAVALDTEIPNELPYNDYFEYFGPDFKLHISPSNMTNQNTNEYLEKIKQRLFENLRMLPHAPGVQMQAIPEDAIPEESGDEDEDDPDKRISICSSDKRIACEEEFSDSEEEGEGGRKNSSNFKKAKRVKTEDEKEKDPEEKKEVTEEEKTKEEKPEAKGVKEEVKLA
T5 sequence (P56524 whole entry): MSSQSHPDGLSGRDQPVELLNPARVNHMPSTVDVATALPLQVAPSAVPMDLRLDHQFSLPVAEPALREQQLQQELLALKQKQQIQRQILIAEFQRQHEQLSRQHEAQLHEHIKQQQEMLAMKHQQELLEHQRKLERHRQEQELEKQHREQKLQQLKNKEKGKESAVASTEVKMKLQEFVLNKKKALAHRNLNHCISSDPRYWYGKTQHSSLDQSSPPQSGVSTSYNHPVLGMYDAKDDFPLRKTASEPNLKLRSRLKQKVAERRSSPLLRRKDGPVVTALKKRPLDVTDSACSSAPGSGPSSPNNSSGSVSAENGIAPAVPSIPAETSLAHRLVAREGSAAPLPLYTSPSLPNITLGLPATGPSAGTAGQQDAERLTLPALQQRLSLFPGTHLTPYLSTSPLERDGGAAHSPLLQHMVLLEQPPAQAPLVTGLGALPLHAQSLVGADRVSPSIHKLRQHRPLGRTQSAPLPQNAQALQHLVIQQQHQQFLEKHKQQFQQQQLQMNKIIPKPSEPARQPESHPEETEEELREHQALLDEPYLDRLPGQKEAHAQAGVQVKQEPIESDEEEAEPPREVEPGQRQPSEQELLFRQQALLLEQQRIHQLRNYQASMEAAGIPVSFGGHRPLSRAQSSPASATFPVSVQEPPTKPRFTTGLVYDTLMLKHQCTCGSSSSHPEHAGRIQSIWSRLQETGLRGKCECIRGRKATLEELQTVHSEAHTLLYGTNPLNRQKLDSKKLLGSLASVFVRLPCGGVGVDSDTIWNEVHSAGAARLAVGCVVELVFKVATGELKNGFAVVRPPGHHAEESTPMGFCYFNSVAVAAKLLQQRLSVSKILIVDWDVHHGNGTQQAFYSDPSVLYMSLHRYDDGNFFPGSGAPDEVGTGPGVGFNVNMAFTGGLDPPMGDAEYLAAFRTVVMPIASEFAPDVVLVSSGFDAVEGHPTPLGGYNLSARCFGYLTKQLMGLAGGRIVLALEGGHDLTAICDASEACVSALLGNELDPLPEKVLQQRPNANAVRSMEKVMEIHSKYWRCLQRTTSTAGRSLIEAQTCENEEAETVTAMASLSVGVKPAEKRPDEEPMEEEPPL
T4 sequence (Q9UQL6 whole entry): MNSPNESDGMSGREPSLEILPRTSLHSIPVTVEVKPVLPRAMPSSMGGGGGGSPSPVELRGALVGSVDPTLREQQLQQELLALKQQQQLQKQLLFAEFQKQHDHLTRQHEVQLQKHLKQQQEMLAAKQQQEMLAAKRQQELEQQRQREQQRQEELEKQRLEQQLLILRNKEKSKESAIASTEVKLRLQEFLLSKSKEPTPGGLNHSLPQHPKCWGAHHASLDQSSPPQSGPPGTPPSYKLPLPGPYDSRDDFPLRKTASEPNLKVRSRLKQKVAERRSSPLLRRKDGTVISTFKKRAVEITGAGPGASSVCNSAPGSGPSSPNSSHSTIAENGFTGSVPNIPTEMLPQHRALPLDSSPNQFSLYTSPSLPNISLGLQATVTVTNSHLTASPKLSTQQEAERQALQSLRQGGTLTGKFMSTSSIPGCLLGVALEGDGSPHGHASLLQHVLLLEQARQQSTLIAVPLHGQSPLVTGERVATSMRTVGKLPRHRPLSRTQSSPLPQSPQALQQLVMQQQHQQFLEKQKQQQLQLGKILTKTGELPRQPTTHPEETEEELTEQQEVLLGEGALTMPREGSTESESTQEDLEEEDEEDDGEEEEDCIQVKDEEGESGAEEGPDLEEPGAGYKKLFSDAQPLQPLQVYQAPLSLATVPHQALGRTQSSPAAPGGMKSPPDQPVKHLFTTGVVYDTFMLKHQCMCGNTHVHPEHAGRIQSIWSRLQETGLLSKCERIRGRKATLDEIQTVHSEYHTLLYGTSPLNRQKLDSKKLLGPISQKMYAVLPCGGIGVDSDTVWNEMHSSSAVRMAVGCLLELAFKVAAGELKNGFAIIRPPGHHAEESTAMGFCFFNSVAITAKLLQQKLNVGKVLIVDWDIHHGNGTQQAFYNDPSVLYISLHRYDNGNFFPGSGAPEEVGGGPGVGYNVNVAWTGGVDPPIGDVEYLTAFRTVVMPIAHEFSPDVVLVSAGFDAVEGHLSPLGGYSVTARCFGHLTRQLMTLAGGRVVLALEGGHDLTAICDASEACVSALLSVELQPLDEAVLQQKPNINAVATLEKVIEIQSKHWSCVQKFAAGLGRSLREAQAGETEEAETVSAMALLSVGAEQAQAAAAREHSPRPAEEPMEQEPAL
Sequence of Histone deacetylase 3 (O15379 whole entry): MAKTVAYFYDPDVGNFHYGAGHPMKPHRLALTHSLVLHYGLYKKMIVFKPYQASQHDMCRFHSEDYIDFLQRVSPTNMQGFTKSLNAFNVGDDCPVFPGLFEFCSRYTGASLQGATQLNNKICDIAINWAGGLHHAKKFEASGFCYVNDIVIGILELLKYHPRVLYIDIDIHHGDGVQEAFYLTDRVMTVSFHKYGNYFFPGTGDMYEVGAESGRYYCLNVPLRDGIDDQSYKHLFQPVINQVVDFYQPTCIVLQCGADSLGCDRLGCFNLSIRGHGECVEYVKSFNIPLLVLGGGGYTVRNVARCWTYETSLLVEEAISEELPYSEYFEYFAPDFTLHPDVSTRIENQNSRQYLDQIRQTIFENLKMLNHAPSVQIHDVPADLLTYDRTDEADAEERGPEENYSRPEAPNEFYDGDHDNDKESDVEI
Sequence of Histone deacetylase 11 (Q96DB2 whole entry): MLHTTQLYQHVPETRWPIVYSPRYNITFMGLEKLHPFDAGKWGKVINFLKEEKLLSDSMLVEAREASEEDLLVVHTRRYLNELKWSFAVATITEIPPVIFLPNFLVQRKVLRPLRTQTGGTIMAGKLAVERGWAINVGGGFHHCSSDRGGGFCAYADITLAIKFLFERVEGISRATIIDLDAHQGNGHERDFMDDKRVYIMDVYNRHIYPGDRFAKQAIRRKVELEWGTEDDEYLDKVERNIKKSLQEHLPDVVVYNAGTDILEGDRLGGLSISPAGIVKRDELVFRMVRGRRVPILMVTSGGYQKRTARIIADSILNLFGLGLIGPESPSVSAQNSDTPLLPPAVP
Sequence of Histone deacetylase 8 (Q9BY41 whole entry): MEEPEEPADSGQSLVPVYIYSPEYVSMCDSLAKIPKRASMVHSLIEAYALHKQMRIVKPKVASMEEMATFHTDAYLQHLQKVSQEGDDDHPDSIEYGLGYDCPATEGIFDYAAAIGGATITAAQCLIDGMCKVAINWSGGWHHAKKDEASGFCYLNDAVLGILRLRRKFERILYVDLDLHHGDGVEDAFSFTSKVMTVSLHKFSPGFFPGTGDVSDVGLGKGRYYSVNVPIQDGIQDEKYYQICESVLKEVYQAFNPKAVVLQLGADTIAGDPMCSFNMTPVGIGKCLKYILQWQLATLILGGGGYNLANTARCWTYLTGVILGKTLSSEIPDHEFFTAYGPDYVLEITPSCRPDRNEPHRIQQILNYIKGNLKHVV
Sequence of NAD-dependent protein deacetylase sirtuin-2 (Q8IXJ6 whole entry): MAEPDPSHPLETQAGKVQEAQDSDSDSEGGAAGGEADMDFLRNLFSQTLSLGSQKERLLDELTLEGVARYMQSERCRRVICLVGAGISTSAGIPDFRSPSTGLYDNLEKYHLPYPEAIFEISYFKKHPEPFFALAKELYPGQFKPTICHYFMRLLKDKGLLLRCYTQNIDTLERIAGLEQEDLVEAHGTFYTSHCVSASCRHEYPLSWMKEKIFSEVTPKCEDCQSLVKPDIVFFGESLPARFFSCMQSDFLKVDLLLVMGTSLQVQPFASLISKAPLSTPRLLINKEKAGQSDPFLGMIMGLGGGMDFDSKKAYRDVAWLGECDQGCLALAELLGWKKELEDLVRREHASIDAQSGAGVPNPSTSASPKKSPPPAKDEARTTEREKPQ

Q: For `COC(=O)[C@H](Cc1ccccn1)NC(=O)CCCCCCC(=O)NO`, which Ratio IC50 (HEK293T) is on record?
A: Its Ratio IC50 is 25.

Q: What about the IC50 [1] of the same compound?
A: The IC50 was 3.97 µM.

Q: What about the GI50 (MCF7) of the same compound?
A: The GI50 was 104 µM.

Q: What about the IC50 (Histone deacetylase 1 [2]) of the same compound?
A: The IC50 was 100 µM.

Q: For `CN(C)c1cccc2c(S(=O)(=O)NCCCCCC(=O)NO)cccc12`, which IC50 [3] is on record?
A: Its IC50 is 0.42 µM.

Q: And the IC50 (Histone deacetylase 5 [4])?
A: Its IC50 is 0.4 µM.

Q: And the IC50 (Histone deacetylase 4 [5])?
A: The IC50 was 0.33 µM.

Q: Which IC50 (Histone deacetylase 9) does the source give for `O=C(NO)c1ccc(Cn2c3c(c4ccccc42)S(=O)(=O)CC3)cc1` here?
A: Its IC50 is 0.1 µM.

Q: And the IC50 (Histone deacetylase 8)?
A: Its IC50 is 1 µM.

Q: And the IC50 (Histone deacetylase 5 [6])?
A: Its IC50 is 1 µM.

Q: What about the IC50 (Histone deacetylase 4 [7]) of the same compound?
A: The IC50 was 1 µM.

Q: What about the IC50 (Histone deacetylase 11) of the same compound?
A: Its IC50 is > 5 µM.

Q: What about the IC50 [8] of the same compound?
A: Its IC50 is > 5 µM.

Q: And the IC50 (Histone deacetylase 3)?
A: The IC50 was > 5 µM.

Q: And the IC50 (Histone deacetylase 2 [9])?
A: The IC50 was > 5 µM.

Q: And the IC50 [10]?
A: Its IC50 is 0.0082 µM.

Q: What about the IC50 (Histone deacetylase 1 [11]) of the same compound?
A: The IC50 was > 5 µM.

Q: Which IC50 [12] does the source give for `COc1cc(C(=O)OCCCCCCCOC(=O)c2ccc(O)c(OC)c2)ccc1O` here?
A: Its IC50 is 0.2 µM.

Q: Which IC50 (CAL-27) does the source give for `CN(C)c1ccc(C(=O)N(CC(=O)NC2CCCCC2)Cc2ccc(C(=O)NO)cc2)cc1` here?
A: The IC50 was 2.04 µM.

Q: What about the IC50 (A2780) of the same compound?
A: Its IC50 is 0.34 µM.

Q: What about the IC50 (Histone deacetylase 2 [13]) of the same compound?
A: The IC50 was 0.2 µM.

Q: And the IC50 [14]?
A: The IC50 was 0.00159 µM.

Q: What does the source list for `O=C(CCCCCCNC(=O)c1cnc(N(c2ccccc2)c2ccccc2)nc1)NO` [RICOLINOSTAT]?
A: IC50 [15]: > 1 µM; IC50 [16]: > 1 µM; IC50 (OPM-2): 2 µM; IC50 (MM1.S): 2 µM

Q: What does the source list for `O=C(NO)c1ccc(Cn2c(=O)c(F)cn(C3CCCO3)c2=O)cc1` (stereo unspecified)?
A: IC50 (Histone deacetylase 2 [13]): 5.5 µM; IC50 [14]: 0.0124 µM; IC50 (Histone deacetylase 1 [17]): 1.71 µM; IC50 (HCT-116): 8.08 µM; IC50 (PC-3): 11.4 µM
